The assay concerns the target T1, NTRK2 (TRKB) (Homo sapiens, UniProt Q16620).
T1 construct: purchased Thermo Fisher Scientific (Life Technologies) SelectScreen
In words: SelectScreen Z'LYTE. It counts as biochemical. Put shortly:
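NU5455 was profiled across the SelectScreen Broad panel of kinase activity and binding assays. Z'LYTE reactions such as CSF1R ran at apparent Km ATP, while the Adapta CAMK1 assay used ATP listed as 10. Values are given as percent.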

T1 sequence (Q16620 32-822): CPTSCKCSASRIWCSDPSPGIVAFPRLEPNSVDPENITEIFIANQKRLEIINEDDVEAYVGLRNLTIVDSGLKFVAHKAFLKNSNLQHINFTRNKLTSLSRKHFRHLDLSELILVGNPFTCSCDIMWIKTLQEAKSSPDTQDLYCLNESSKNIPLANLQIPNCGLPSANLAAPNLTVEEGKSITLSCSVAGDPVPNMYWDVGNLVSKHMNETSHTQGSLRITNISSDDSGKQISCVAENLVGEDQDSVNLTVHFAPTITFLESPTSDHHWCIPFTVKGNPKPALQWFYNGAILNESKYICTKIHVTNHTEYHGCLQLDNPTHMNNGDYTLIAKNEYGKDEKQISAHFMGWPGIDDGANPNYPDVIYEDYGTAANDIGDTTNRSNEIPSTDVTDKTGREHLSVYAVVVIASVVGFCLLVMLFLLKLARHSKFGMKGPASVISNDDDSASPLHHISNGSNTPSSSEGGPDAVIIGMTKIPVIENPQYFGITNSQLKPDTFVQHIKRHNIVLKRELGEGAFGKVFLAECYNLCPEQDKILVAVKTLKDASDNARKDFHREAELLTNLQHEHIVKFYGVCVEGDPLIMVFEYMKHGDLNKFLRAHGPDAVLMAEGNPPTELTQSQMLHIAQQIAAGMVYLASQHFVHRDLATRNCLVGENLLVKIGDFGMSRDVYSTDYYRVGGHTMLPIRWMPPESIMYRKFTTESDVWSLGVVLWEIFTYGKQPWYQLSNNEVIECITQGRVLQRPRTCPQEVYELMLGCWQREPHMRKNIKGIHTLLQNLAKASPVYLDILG

Consider `CN(C(=O)CN1CCOCC1)c1ccc2sc3c(-c4cccc5c(=O)cc(N6CC7CCC(C6)O7)oc45)cccc3c2c1` [NU5455], for which the inhibition at 1 µM was 5.1%.

(Values after article PMC6934184, “Selective DNA-PKcs inhibition extends the therapeutic index of localized radiotherapy and chemotherapy” (The Journal of Clinical Investigation, 2019).)
